The values below come from patent publication US8163901B2, “Amide derivatives as ion-channel ligands and pharmaceutical compositions and methods of using the same” (Evotec AG, priority 2008, dated 2012).

Holding throughout (format): cell-based
The target of experiment [1] is T1, hVR1 (Homo sapiens, UniProt Q8NER1).
T1 construct: R710-07 (T-REx host cell line); host or cells: T-REx System cell line, called 'human keratinocyte cell line' and 'HEK 293 cells'
Nature of the experiment: Determination of pA2 values against capsaicin stimulation (Ca2+ imaging, Schild analysis). The procedure:
Changes in the fluorescence signal (λex=470-495 nm, λem=515-575 nm) are monitored throughout the experiment before agonist addition and for at least 2 min after agonist addition (enough time for the fluorescence response to reach and then decline from the absolute maximum, agonist-induced signal attained). For each well, final relative fluorescence units (RFUs) are calculated as the difference between the maximum fluorescence signal obtained in the experiment after agonist addition and the signal level seen at baseline before agonist, but after antagonist, addition (the absolute minimum level of fluorescence signal observed in the 10 seconds prior to agonist addition). […] Data are fit to an ideal curve utilizing the 4-parameter sigmoid curve-fit function in GraphPad Prism software (version 4, GraphPad Software, Inc., San Diego, Calif., USA) from which an EC50 value is obtained. […] For each antagonist, at least three concentrations are tested. Dose Ratio values are then used to make a standard Schild plot—log [antagonist concentration] plotted against log [DR−1], see Kenakin reference above for theoretical background and method. A linear regression curve-fit is then performed on these plotted points. […] If these conditions are not met, then the antagonist is rerun in a pA2 assay using different antagonist concentrations until the above conditions are met.

In experiment [2] the target is T1, hVR1. Nature of the experiment: Calcium uptake assay (FLIPR), inhibition of capsaicin-induced calcium influx. The procedure:
(§1) Functional activity of compounds against the VR1 receptor was determined by measuring changes in intracellular calcium in HEK 293 cells expressing hVR1. Compounds were examined for their ability to inhibit agonist-induced calcium influx. Relative levels of [Ca^2+] were monitored in a 96-well format using a calcium-sensitive fluorescence dye and a FLIPR TETRA, Molecular Devices.
(§2) Cells that express high levels of VR1 were obtained by generation of a cell line from human keratinocytes with heterologous expression of VR1 under control of an inducible promoter. Specifically, cells expressing human VR1 under the control of the human cytomegalovirus immediate-early (CMV) promoter and two tetracycline operator 2 (TetO2) sites were made using the T-REx System (Invitrogen, Carlsbad, Calif., USA). Details and methods concerning this system are published (Hum. Gene Ther. 9, pp. 1939-1950, 1998; Annu. Rev. Microbiol. 48, pp. 345-369, 1994; Mol. Biol. 169, pp. 707-'721, 1983). Human VR1 was subcloned into the T-REx System pcDNA5/TO vector (Invitrogen Cat# V1033-20) which was transfected into the T-REx System human keratinocyte cell line (Invitrogen Cat# R710-07) from which a stable cell line was established which expresses VR1 after induction by exposure to tetracycline or doxycycline (Hum. Gene Ther. 9, pp. 1939-1950, 1998; instructions that come with purchase of products noted above). Cells were maintained in a CO2 incubator (5% CO2) at 37° C. in culture medium containing DMEM with phenol red (Mediatech Cat #: 15-017-CV) supplemented with 10% heat-inactivated Fetal Bovine Serum, 5% Penicillin-streptomycin (Mediatech Cat #: 30-002-CI), 5% Glutamax® (L-Alanyl-L-Glutamine, Mediatech Cat #: 25-015-CI), 200 μg/ml hygromycin (Mediatech #:30-240-CR), 0.5 μg/ml blasticidin (Invitrogen #46-1120)).
(§3) For assay preparation, cells expressing human VR1 as described above were plated in 96-well plates (Becton Dickinson [BD] poly-D-lysine coated 96-well plates, cat #356692) at 55,000 cells per well in culture media (described above) that also contained 1 ug/ml doxycycline. Plated cells were then placed in an incubator (5% CO2) and incubated for 20-26 hours at 37° C., until the cells had grown to near confluency. Media was then aspirated from cells and 50 uL of dye-containing buffer (from Molecular Devices FLIPR Calcium 4 Assay kit, cat# R8141) was added to each well. Cells were then left in the dark at room temperature for 1.5-2 hours. Cell plates were then placed in the FLIPR TETRA (Molecular Devices, CA, USA). Test compounds and agonists were added to wells using the liquid handling capability of the FLIPR TETRA. Calcium responses of the cells were monitored by fluorescence readout of dye signal. Test compounds in saline (130 mM NaCl, 17 g/L sucrose, 1.8 g/L glucose, 8.8 mM HEPES, 3 mM KCl, 0.60 mM MgCl, 1.0 mM CaCl2; adjust to pH 7.4 using NaOH; 0.03% BSA added on the day of the experiment), or vehicle control in saline, were pre-incubated at the desired final concentrations in the dark at room temperature for 2 or 30 minutes with cells already containing the above mentioned dye buffer (dye solution was diluted 1:1 in culture wells with saline containing 2× the final concentration of test compound). […] Another agonist was protons via a low pH solution (saline solution described above plus 10 mM citric acid buffered to pH 5.7 with HCl instead of buffering to a neutral pH with NaOH as done for normal saline). Compounds were tested at various concentration ranges, depending upon potency of compound. After the 2 minute or 30 minute compound pre-treatment, treatment solution was then added to cells by adding a volume of treatment solution equal to the pretreatment solution already on the cells.

Experiment [3] has as its target T1, hVR1. Put plainly: Calcium uptake assay (FLIPR), inhibition of low pH (proton)-induced calcium influx. The conditions noted are these: agonist protons, low pH solution pH 5.7; cells expressing hVR1. How it is done: as §1, §2
as §3, with “compound). Compound IC50 experiments were run using an agonist concentration at or near the EC50 of the agonist.” for “compound).”, “cells. […]” for “cells.”

T1 sequence (Q8NER1 whole entry): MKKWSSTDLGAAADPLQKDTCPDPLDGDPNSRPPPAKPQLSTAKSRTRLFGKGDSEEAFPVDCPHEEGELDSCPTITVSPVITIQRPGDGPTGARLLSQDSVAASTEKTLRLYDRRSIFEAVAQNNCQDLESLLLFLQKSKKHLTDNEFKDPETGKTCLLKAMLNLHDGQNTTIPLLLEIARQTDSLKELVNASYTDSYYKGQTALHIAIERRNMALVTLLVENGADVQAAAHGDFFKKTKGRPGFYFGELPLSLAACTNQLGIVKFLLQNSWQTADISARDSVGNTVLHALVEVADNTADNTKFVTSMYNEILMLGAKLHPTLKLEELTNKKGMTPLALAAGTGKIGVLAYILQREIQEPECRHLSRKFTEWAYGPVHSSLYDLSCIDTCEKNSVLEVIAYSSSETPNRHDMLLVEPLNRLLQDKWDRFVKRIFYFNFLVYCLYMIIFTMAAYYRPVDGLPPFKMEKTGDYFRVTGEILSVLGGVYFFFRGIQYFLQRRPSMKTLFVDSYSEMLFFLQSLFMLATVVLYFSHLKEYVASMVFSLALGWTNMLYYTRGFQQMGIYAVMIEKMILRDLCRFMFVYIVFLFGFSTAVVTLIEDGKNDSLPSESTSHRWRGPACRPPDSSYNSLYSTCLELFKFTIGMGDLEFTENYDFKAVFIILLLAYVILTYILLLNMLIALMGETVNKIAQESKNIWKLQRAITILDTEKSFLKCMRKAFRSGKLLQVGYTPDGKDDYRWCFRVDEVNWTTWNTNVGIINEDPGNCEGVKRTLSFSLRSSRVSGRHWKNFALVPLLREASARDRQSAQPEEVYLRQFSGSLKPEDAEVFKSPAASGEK

By IC50 is commonly meant the concentration at which inhibition is half-maximal. In the case of `C[C@@H](NC(=O)[C@H]1CCc2nc(C(C)(C)C(F)(F)F)ccc2C1)c1ccc2[nH]ncc2c1` [Compound 12, (S)-2-(2,2,2-Trifluoro-1,1-dimethyl-ethyl)-5,6,7,8-tetrahydro-quinoline-6-carboxylic acid [(R)-1-(1H-indazol-5-yl)-ethyl]-amide], the Kb at hVR1 [1] was 0.208 nM. In addition, the IC50 turned out to be 2 nM on hVR1 [2] and 6 nM on hVR1 [3].

In turn, `CC(C)(c1ccc2c(n1)CC[C@@H](C(=O)Nc1cnc3c(c1)COCC3)C2)C(F)(F)F` (single isomer, unassigned) [Compound 18] had a Kb on hVR1 [1] of 32 nM. For the same compound, the IC50 worked out at 6 nM at hVR1 [2] and 18 nM at hVR1 [3].

`CC(C)(c1ccc2c(n1)CC[C@@H](C(=O)Nc1cnc3sc(CO)nc3c1)C2)C(F)(F)F` [Compound 15, (R)-2-(2,2,2-Trifluoro-1,1-dimethyl-ethyl)-5,6,7,8-tetrahydro-quinoline-6-carboxylic acid (2-hydroxymethyl-thiazolo[5,4-b]pyridin-6-yl)-amide]: the Kb at hVR1 [1] was 5.05 nM. For the same compound, the IC50 was 19 nM at hVR1 [2] and 18 nM at hVR1 [3].

Take `CC(C)(c1ccc2c(n1)CC[C@@H](C(=O)Nc1cnc3ccccc3c1)C2)C(F)(F)F` [Compound 21, (R)-2-(2,2,2-Trifluoro-1,1-dimethyl-ethyl)-5,6,7,8-tetrahydro-quinoline-6-carboxylic acid quinolin-3-ylamide]: the Kb on hVR1 [1] is 22.9 nM. For the same compound, the values for the IC50 at hVR1 [2] and at hVR1 [3] were 33 nM and 40 nM, respectively.

In turn, `CC(NC(=O)[C@H]1COc2cc(C(C)(C)C)ccc2O1)c1ccc2[nH]ncc2c1` (single isomer, unassigned) [Compound 7] gave a Kb at hVR1 [1] of 16.1 nM. The IC50 was 29 nM at hVR1 [2] and 226 nM on hVR1 [3].

Consider `C[C@@H](NC(=O)[C@@H]1CCc2nc(C(C)(C)C(F)(F)F)ccc2C1)c1ccc2[nH]ncc2c1` [Compound 11, (R)-2-(2,2,2-Trifluoro-1,1-dimethyl-ethyl)-5,6,7,8-tetrahydro-quinoline-6-carboxylic acid [(R)-1-(1H-indazol-5-yl)-ethyl]-amide], for which the Kb at hVR1 [1] is 1.79 nM. In addition, the IC50 on hVR1 [2] was 9 nM; at hVR1 [3], 23 nM.

On to `CC(NC(=O)C1CN(C)c2cc(C(F)(F)F)ccc2O1)c1ccc2[nH]ncc2c1` (mixture of isomers) [Compound 9, 4-Methyl-6-trifluoromethyl-3,4-dihydro-2H-benzo[1,4]oxazine-2-carboxylic acid [1-(1H-indazol-5-yl)ethyl]amide], for which the Kb at hVR1 [1] is 34.7 nM. Further, the IC50 was determined as 42 nM at hVR1 [2] and 117 nM at hVR1 [3].

With `CC(=O)N1CCc2ccc(NC(=O)[C@@H]3CCc4nc(C(C)(C)C(F)(F)F)ccc4C3)cc21` [Compound 23, (R)-2-(2,2,2-Trifluoro-1,1-dimethyl-ethyl)-5,6,7,8-tetrahydro-quinoline-6-carboxylic acid (1-acetyl-2,3-dihydro-1H-indol-6-yl)-amide], on hVR1 [1], the Kb is 5.91 nM. For the same compound, the IC50 came out at 2 nM at hVR1 [2] and 9 nM on hVR1 [3].

`CC(C)(c1ccc2c(n1)CC[C@H](C(=O)Nc1cnc3c(c1)COCC3)C2)C(F)(F)F` (single isomer, unassigned) [Compound 19] gave a Kb at hVR1 [1] of 17 nM. The IC50 stood at 9 nM on hVR1 [2] and 67 nM at hVR1 [3].
